Calls of active or inactive are those of the source. The rule behind the calls is not given here.
Target: 5-hydroxytryptamine receptor 5A (Homo sapiens) (UniProt P47898)
Assay: activation of human HTR5A receptor, late-stage follow-up, counter-screen for OPRM1-OPRD1 heterodimer activator project, cell-based, luminescence, dose response (AID 651688)
Details: HTR5A counterscreen cells, luminescence (beta-arrestin/complementation)

Chain of 5-hydroxytryptamine receptor 5A (Homo sapiens) (P47898 whole entry, looked up): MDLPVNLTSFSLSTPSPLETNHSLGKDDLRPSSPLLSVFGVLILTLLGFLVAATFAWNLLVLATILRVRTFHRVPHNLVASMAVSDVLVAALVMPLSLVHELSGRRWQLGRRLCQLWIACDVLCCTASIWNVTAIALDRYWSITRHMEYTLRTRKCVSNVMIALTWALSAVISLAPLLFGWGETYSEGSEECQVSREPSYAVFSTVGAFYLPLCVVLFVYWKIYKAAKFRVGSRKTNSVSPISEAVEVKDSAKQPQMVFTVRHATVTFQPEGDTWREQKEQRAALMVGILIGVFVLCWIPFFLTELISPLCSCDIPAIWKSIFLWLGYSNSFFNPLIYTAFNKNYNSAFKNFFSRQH

| Structure (SMILES) | EC50 |
| --- | --- |
| CCOC(=O)C1(CCCc2ccccc2)CCN(Cc2cnn(C)c2)CC1 | > 40 µM (inactive) |
| CCOC(=O)C1(CCc2ccccc2)CCN(Cc2ccccc2C)CC1 | > 40 µM (inactive) |
| CCOC(=O)C1(CCc2ccccc2)CCN(Cc2ccc(NC(C)=O)cc2)CC1 | > 40 µM (inactive) |
| CCOC(=O)C1(CCOc2ccccc2)CCN(Cc2ccc(O)c(OC)c2)CC1 | > 40 µM (inactive) |
| CCOC(=O)C1(CCc2ccccc2)CCN(Cc2cc(C)cc(C)c2)CC1 | > 40 µM (inactive) |
| OCC1(CCc2ccccc2)CCN(Cc2cc(F)ccc2-n2cccn2)CC1 | > 40 µM (inactive) |
| CCOC(=O)C1(CCc2ccccc2)CCN(Cc2ccc(OC(C)C)c(C#N)c2)CC1 | > 40 µM (inactive) |
| CCOC(=O)C1(CC2CCCCO2)CCN(Cc2c(C)cc(C)cc2-n2cccn2)CC1 (stereo unspecified) | > 40 µM (inactive) |
| CCOC(=O)C1(CCOc2ccccc2)CCN(Cc2cccn2-c2cccnc2)CC1 | > 40 µM (inactive) |
| CCOC(=O)C1(Cc2ccccc2)CCN(Cc2cccn2-c2cccnc2)CC1 | > 40 µM (inactive) |
| CCOC(=O)C1(Cc2ccccc2)CCN(Cc2cccn2-c2nccs2)CC1 | > 40 µM (inactive) |

— PubChem BioAssay AID651688 (The Scripps Research Institute Molecular Screening Center, 2012)
